Among the test systems are HCT-15 colon; OVCAR-4 ovarian; U251 CNS; MCF7 breast; OVCAR-5 ovarian; HT29 colon; RPMI-8226 leukemia; UO-31 renal; RXF 393 renal; COLO 205 colon.
Common to all, as to assay: NCI tumour cell line growth inhibition, 48 h

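Interpolation was linear, between the two tested concentrations surrounding the appropriate level; five concentrations were tested over 48 hours in 96-well plates. GI50: concentration for 50% inhibition of growth. Definition used: TGI = concentration required for complete inhibition of growth.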

For `CN(C)CCCn1c2c(c3ccncc3c1=O)C(=O)c1ccccc1-2`, the GI50 with HCT-15 colon is 0.513 µM; in the assay with OVCAR-4 ovarian, 1.37 µM; with U251 CNS it was 0.757 µM; with MCF7 breast it was 0.333 µM; in the assay with OVCAR-5 ovarian, 1.82 µM; in the assay with HT29 colon, 0.484 µM. The GI50 is 1.72 µM in the assay on RPMI-8226 leukemia, 0.546 µM in the assay with UO-31 renal, 1.14 µM in the assay on RXF 393 renal and 0.806 µM in the assay on COLO 205 colon. Further, the TGI in the assay with HCT-15 colon was 11.9 µM; in the assay with OVCAR-4 ovarian it was 8.67 µM; in the assay with U251 CNS it was 15.3 µM; in the assay on MCF7 breast, 14 µM; in the assay on OVCAR-5 ovarian, 9.25 µM; in the assay on HT29 colon, 13.1 µM. The TGI was found to be 7.62 µM with RPMI-8226 leukemia, 21 µM in the assay on UO-31 renal, 3.86 µM in the assay on RXF 393 renal and 14.3 µM with COLO 205 colon.

Turning to `C=CCn1c(=O)c(-c2ccccc2)c(O)c2ccccc21`, the TGI with HCT-15 colon, in the assay with OVCAR-4 ovarian, with U251 CNS, with MCF7 breast, in the assay on OVCAR-5 ovarian and with HT29 colon was > 100 µM each time. Besides, the TGI with RPMI-8226 leukemia, in the assay on UO-31 renal, with RXF 393 renal and in the assay with COLO 205 colon was > 100 µM in each case.

For `CC(C)(Oc1ccc(C2C[C@H]2Cl)cc1)C(=O)O` (stereo partly specified), the TGI in the assay with HCT-15 colon, in the assay on OVCAR-4 ovarian, in the assay with U251 CNS, in the assay on MCF7 breast, with OVCAR-5 ovarian and in the assay on RPMI-8226 leukemia was > 100 µM in each case. Further, the TGI with RXF 393 renal and in the assay with COLO 205 colon was > 100 µM each time.

Consider `COc1cc(NS(C)(=O)=O)ccc1N1Cc2cnc3ccc4[nH]ccc1c4c23`, for which the TGI in the assay with HCT-15 colon, with OVCAR-4 ovarian, with U251 CNS, with MCF7 breast, with OVCAR-5 ovarian and with HT29 colon was > 100 µM each time. Moreover, the TGI in the assay on RPMI-8226 leukemia was 46.8 µM; in the assay on UO-31 renal it was > 100 µM; in the assay with COLO 205 colon, > 100 µM.

On to `Clc1ccc(CCN2CCN(CCCc3ccccc3)CC2)cc1Cl`, for which the TGI with HCT-15 colon turned out to be 27.8 µM; in the assay on OVCAR-4 ovarian, 31.4 µM; in the assay with U251 CNS, 31.9 µM; in the assay on MCF7 breast it was 33.8 µM; with OVCAR-5 ovarian it was 29.9 µM; in the assay with HT29 colon it was 26.9 µM. For the same compound, the TGI in the assay on RPMI-8226 leukemia was 55.2 µM; in the assay on UO-31 renal, 24.7 µM; in the assay with COLO 205 colon it was 31.6 µM.

`C=CC(C)(C)c1cc([C@@H]2COc3cc(O)ccc3C2=O)c(O)c(OC)c1OC`: the TGI with HCT-15 colon was 32.8 µM; in the assay on OVCAR-4 ovarian it was 19.7 µM; with U251 CNS it was 26.8 µM; in the assay with MCF7 breast it was 31.8 µM; in the assay on OVCAR-5 ovarian, 50.4 µM; in the assay with HT29 colon, 47.3 µM. The TGI with UO-31 renal was determined as 28.3 µM; in the assay on RXF 393 renal, 3.58 µM; in the assay on COLO 205 colon, 45 µM.

As to `N#C/C(=C/NC(=S)Nc1ccc(S(N)(=O)=O)cc1)C(N)=O`, the TGI in the assay on HCT-15 colon, in the assay on OVCAR-4 ovarian, with U251 CNS, in the assay with MCF7 breast, in the assay with OVCAR-5 ovarian and in the assay on HT29 colon was > 100 µM each time. In addition, the TGI in the assay with RPMI-8226 leukemia, with RXF 393 renal and with COLO 205 colon was > 100 µM throughout.

Turning to `O=S(=O)(N1CCCCN(S(=O)(=O)C(F)(F)F)CCCN(S(=O)(=O)C(F)(F)F)CCCN(S(=O)(=O)C(F)(F)F)CCCCN(S(=O)(=O)C(F)(F)F)CCCN(S(=O)(=O)C(F)(F)F)CCC1)C(F)(F)F`, the TGI with HCT-15 colon was > 100 µM; in the assay with OVCAR-4 ovarian it was > 100 µM; in the assay on U251 CNS, 64.1 µM; with MCF7 breast it was > 100 µM; with OVCAR-5 ovarian it was > 100 µM; in the assay on HT29 colon it was > 100 µM. In addition, the TGI was > 100 µM in the assay with UO-31 renal, 70.2 µM in the assay with RXF 393 renal and > 100 µM in the assay with COLO 205 colon.

In the case of `CSc1nc(Cl)c2c(n1)Sc1ncnn1C2O` (stereo unspecified), the TGI in the assay on HCT-15 colon was 18.4 µM; in the assay on OVCAR-4 ovarian, 29.6 µM; in the assay with U251 CNS, 33.9 µM; in the assay on MCF7 breast it was 16 µM; in the assay on OVCAR-5 ovarian, 32.3 µM; in the assay on HT29 colon, 28.4 µM. For the same compound, the TGI in the assay with UO-31 renal was determined as 5.24 µM; with RXF 393 renal, 5.63 µM; in the assay with COLO 205 colon it was 62.7 µM.

For the compound `COC(=O)c1ccc2[nH]c3c(c2c1)CC(=O)Nc1ccccc1-3`, the TGI in the assay on HCT-15 colon was > 100 µM; with OVCAR-4 ovarian, 40.2 µM; with U251 CNS, 94.6 µM; in the assay on MCF7 breast, > 100 µM; with OVCAR-5 ovarian, > 100 µM; in the assay on HT29 colon, > 100 µM. Besides, the TGI with RPMI-8226 leukemia was > 100 µM; in the assay on UO-31 renal, 0.211 µM; in the assay with COLO 205 colon, > 100 µM.

Regarding `CC(C)(C)OC(=O)NCCNC(=O)OCc1ccccc1`, the TGI in the assay with HCT-15 colon, in the assay with U251 CNS, in the assay with MCF7 breast, in the assay on OVCAR-5 ovarian, in the assay on HT29 colon and in the assay on RPMI-8226 leukemia was > 100 µM in each case. Moreover, the TGI in the assay on UO-31 renal, in the assay with RXF 393 renal and in the assay on COLO 205 colon was > 100 µM in each case.

For the compound `CC1=CC(=O)C[C@]2(C)[C@@H](O)CC(C(C)CO)C[C@@H]12` (stereo partly specified), the TGI with HCT-15 colon, with OVCAR-4 ovarian, with U251 CNS, with MCF7 breast, in the assay with OVCAR-5 ovarian and with HT29 colon was > 100 µM in each case. Further, the TGI in the assay with UO-31 renal, with RXF 393 renal and in the assay with COLO 205 colon was > 100 µM in each case.

Take `C=C(Cl)C(Cl)(CBr)CCC(Cl)C(C)C` (stereo unspecified): the TGI in the assay on HCT-15 colon turned out to be 22.1 µM; in the assay with OVCAR-4 ovarian it was 25.4 µM; in the assay with U251 CNS it was 1.88 µM; in the assay on MCF7 breast it was 2.57 µM; in the assay with OVCAR-5 ovarian, 23.9 µM; in the assay with HT29 colon, 0.955 µM. Besides, the TGI amounted to 7.4 µM with UO-31 renal, 22 µM with RXF 393 renal and 10.3 µM with COLO 205 colon.

For `O=c1[nH]/c(=C/c2ccc(OCc3ccccc3)cn2)c(=O)[nH]/c1=C/c1cccnc1`, the TGI is > 61.5 µM with OVCAR-4 ovarian; > 100 µM in the assay with U251 CNS; > 100 µM in the assay on MCF7 breast; > 100 µM with OVCAR-5 ovarian; > 100 µM in the assay with HT29 colon; > 100 µM with RXF 393 renal. The same compound displayed a TGI with COLO 205 colon of 6.13 µM.

Consider `O=S(=O)(CC#CCS(=O)(=O)c1ccccc1)c1ccccc1`, for which the TGI amounted to 4 µM with HCT-15 colon; 3.71 µM with OVCAR-4 ovarian; 24.5 µM with U251 CNS; 6.7 µM in the assay on MCF7 breast; 19.7 µM in the assay with OVCAR-5 ovarian; 27.7 µM in the assay on HT29 colon. Moreover, the results for the TGI in the assay on UO-31 renal, with RXF 393 renal and in the assay with COLO 205 colon were 2.65 µM, 3.38 µM and 5.19 µM, respectively.

Turning to `COc1cc(C2c3cc4c(c(O)c3C(=O)C3CCC(=O)N32)OCO4)cc(OC)c1OC` (stereo unspecified), the TGI in the assay with HCT-15 colon, in the assay with OVCAR-4 ovarian, in the assay with U251 CNS, in the assay with MCF7 breast, in the assay with OVCAR-5 ovarian and with HT29 colon was > 100 µM each time. The TGI in the assay on RPMI-8226 leukemia, in the assay on UO-31 renal and with COLO 205 colon was > 100 µM in each case.

Turning to `O=C1CSC(c2ccc(Cl)cc2)N1c1ccc(-n2c(-c3ccccc3)nc3ccccc3c2=O)cc1` (stereo unspecified), the TGI in the assay on HCT-15 colon was > 100 µM; in the assay with OVCAR-4 ovarian, 41 µM; in the assay with U251 CNS it was > 100 µM; with MCF7 breast, > 100 µM; in the assay with OVCAR-5 ovarian it was > 100 µM; with HT29 colon it was > 100 µM. Moreover, the TGI with RPMI-8226 leukemia, in the assay with UO-31 renal and with COLO 205 colon was > 100 µM each time.

`O=C(CSCC(=O)N/N=C\c1cc(Br)cc(Br)c1O)N/N=C\c1cc(Br)cc(Br)c1O`: the TGI in the assay with HCT-15 colon was > 100 µM; in the assay on OVCAR-4 ovarian it was > 100 µM; in the assay with U251 CNS, 22.3 µM; in the assay with MCF7 breast, > 100 µM; with OVCAR-5 ovarian it was > 100 µM; with HT29 colon, > 100 µM. The TGI in the assay with UO-31 renal was 49.6 µM; in the assay with RXF 393 renal it was > 100 µM; in the assay with COLO 205 colon, > 100 µM.

`N#Cc1ccc(/C=C2\Cc3ccccc3C2=O)cc1`: the TGI in the assay with HCT-15 colon, in the assay on OVCAR-4 ovarian, in the assay with MCF7 breast, in the assay on HT29 colon, with RPMI-8226 leukemia and with UO-31 renal was > 100 µM each time. Further, the TGI in the assay on RXF 393 renal and with COLO 205 colon was > 100 µM throughout.

Turning to `Cc1ccc(-c2c(C#N)c(O)n(NS(=O)(=O)c3ccccc3)c(=O)c2C#N)cc1`, the TGI in the assay on HCT-15 colon, in the assay on OVCAR-4 ovarian, in the assay on U251 CNS, with MCF7 breast, with OVCAR-5 ovarian and in the assay with HT29 colon was > 100 µM each time. The TGI in the assay on RXF 393 renal and in the assay with COLO 205 colon was > 100 µM throughout.

Consider `COCN1C(=O)[C@@H]2C[C@@H](OC/C=C/CBr)CN2C(=O)c2ccccc21`, for which the TGI with HCT-15 colon came out at 56.2 µM; in the assay on OVCAR-4 ovarian it was 35.7 µM; in the assay on U251 CNS it was 74.8 µM; in the assay with MCF7 breast, 33.7 µM; with OVCAR-5 ovarian, 49.7 µM; with HT29 colon it was 82.1 µM. In addition, the TGI worked out at 40.5 µM in the assay with UO-31 renal, 51.3 µM in the assay with RXF 393 renal and 42.8 µM with COLO 205 colon.

The values are drawn from PubChem BioAssay (NCI).
